Results on 1 substance are retold here after PMC8123395, “Aggregation and Its Influence on the Bioactivities of a Novel Antimicrobial Peptide, Temporin-PF, and Its Analogues” (International Journal of Molecular Sciences, 2021).

No end group written: not given here.

For one data set, the system named is MRSA biofilm. It is filed as cell-based. To be noted: biofilm, 24 h. How it is done: (§1) MBIC and MBEC assays were performed as previously described with minor modifications. For the MBIC assay, a suspension of broth diluted bacteria culture (5 × 10^5 CFU/mL) was incubated with the peptide solutions at 37 °C for 24 h. For MBEC assay, 100 μL inoculum culture was seeded to a 96-well-flat-bottom plate and incubated at 37 °C for 48 h to obtain the mature biofilm. Afterwards, the plate was washed by sterile phosphate-buffered saline (PBS; Sigma-Aldrich, Gillingham, UK) twice and treated with a series peptide solution at 37 °C for 24 h. Then, all the plates were washed with PBS and stained by 100 μL 0.1% crystal violet solution (Sigma-Aldrich, Gillingham, UK), and further dissolved by 30% acetic acid (Sigma-Aldrich, Gillingham, UK). The absorbance of each well was recorded by Synergy HT plate reader (Biotech, Minneapolis, MN, USA) at 595 nm.

A further data set concerns S. aureus biofilm. In kind it is cell-based. Particulars: biofilm, 24 h. How it is done: as §1
The subject of a further data set is MRSA mature biofilm. In kind it is cell-based. To be noted: mature biofilm, 48 h. How it is done: as §1
The test system of the next data set is S. aureus mature biofilm. It is filed as cell-based. To be noted: mature biofilm, 48 h. How it is done:
as §1

Data set [1] in a line: RP-HPLC retention order of mixed peptides (overall hydrophobicity). In kind it is physicochemical. Particulars: peptides mixed in equal ratio and subjected to RP-HPLC; Supplementary Figure S4. How it is done:
All peptides were chemically synthesized and purified by RP-HPLC. They were further mixed with an equal ratio and subjected to RP-HPLC. […] Subsequently, all peptides (1 mg/mL) were dissolved in a series of widely used culture media (Figure 2).
N-terminal Phe of temporin was believed to participate in the packaging of “head-tail” oligomerization. […] Furthermore, Trp/D-Trp substitution carried out on des-Phe1 TPF enhanced the peptide aggregation. […] It may be related to the decrease of the helical content; however, it could also be caused by the change of aggregation effects. Previous studies have shown that AMPs with strong antimicrobial activity are present as monomers in an aqueous solution and aggregate on the membrane to disrupt the bacterial cell membrane. […] It has been proposed that some aggregation effects of AMPs could limit the interaction of the peptide with its target, thereby reducing the antibacterial efficacy. In the previous study, the zipper-like motif is associated with the bioactivities as well as the assembly in the LPS micelles, which was considered to arise from hydrophobic interactions mainly. However, the overall hydrophobicity of Trp/D-Trp substituted analogs is less than that of des-Phe1 TPF, as estimated by RP-HPLC analysis. We hypothesize that the enhanced assembly seen for Trp/D-Trp substituted analogs might be related to the increased content of aromatic residues, because it could promote the strength of π stacking or cation-π type interaction. However, the true relation has not been fully clarified so far, and the capability of aromatic moieties to promote aggregation could also be affected by the hydrophobicity, position, and the neighboring side chains in their three-dimensional conformation.

Regarding LPLIAGLFGKIF-NH2 [des-Phe1 TPF], the MBIC in the data set with MRSA biofilm is 32/32 µM; in the data set with S. aureus biofilm, 16 µM. In addition, the MBEC in the data set on MRSA mature biofilm is 32/32 µM; in the data set with S. aureus mature biofilm, 32 µM. In addition, in data set [1], the “order of retention time (RP-HPLC, used as estimate of overall hydrophobicity)” value is given as “TPF> des-Phe1 TPF> W-des-Phe1 TPF> dW-des-Phe1 TPF”.
